Experimental data from the METLIN SMRT retention time set (Domingo-Almenara et al. 2019).

Assay: gradient 5% acetonitrile 3 min, to 50% in 2 min, to 85% in 15 min, held 3 min, 100 µL/min
Details: column: Zorbax Extend-C18 2.1 x 50 mm; eluents: water / acetonitrile, 0.1% formic acid
Method in brief: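 Over 3 months, pure standards in mixtures of ~100 molecules were run by HPLC coupled to a quadrupole time-of-flight mass spectrometer in positive and negative ionization mode. The column was a Zorbax Extend-C18 (2.1 × 50 mm, 1.8 μm) at 100 μL/min, eluted with water and acetonitrile each holding 0.1% formic acid, with 40 μL dead and 900 μL dwell volumes. Retention time was determined from adduct peaks chosen by software and checked manually.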

SMILES | RP-LC retention time
CCCn1cc(S(=O)(=O)N2CCN(c3cccc(Cl)c3)CC2)c2cccnc21 | 761 s
CCN1c2ccc(F)cc2C(=O)NC12CCN(C(=O)c1ccc3c(c1)OCO3)CC2 | 749 s
Cc1ccc(Nc2c(-c3ccc(N(C)C)cc3)nc3ncccn23)c(C)c1 | 782 s
CC(=O)Nc1cccc(-n2cc3c(c2-c2ccccc2Cl)c(=O)n(C)c(=O)n3C)c1 | 768 s
CCc1cccc(NC(=O)N2c3ccccc3CC2c2nc(CCOC)no2)c1 (stereo not given) | 1060 s
COc1ccc(C(=O)N2CCC(n3c(-c4ccco4)nc4cccnc43)C2)cn1 (stereo not given) | 643 s
O=c1[nH]c2ccc(NCc3ccc(-c4ccccc4F)o3)cc2[nH]1 | 687 s
Cc1oc2ccn(Cc3ccc(F)cc3)c(=O)c2c1C(=O)NCc1cc(F)ccc1F | 1130 s
Cc1ccc(C(=O)N2C[C@@H]3C[C@H](NC(=O)c4ccccc4)[C@H]2C3)cc1F | 811 s
Cc1ccc(NC(=O)C(=O)NCCCN2CCOCC2)cc1F | 573 s
COc1ccc(-c2nc3cnccn3c2Nc2ccc(OC)c(OC)c2)cc1 | 690 s
O=C(CCc1ccccc1)N1CCN(C(=O)c2nnn3c2COC(c2ccccc2)C3)CC1 (stereo not given) | 891 s
Cc1cc(=O)n(CC(=O)Nc2ccc(F)cc2F)c(N2CCCCC2)n1 | 672 s
O=C(CCC1NC(=O)c2ccccc2NC1=O)Nc1ncn[nH]1 (stereo not given) | 521 s
Cc1ccc(N2C(=O)CN(Cc3ccco3)[C@H]3CS(=O)(=O)C[C@H]32)cc1 | 737 s
O=C(C1=NNc2ccccc2S1(=O)=O)N1CCOCC1 | 618 s
CCCNC(=O)C1CCCN(c2ccc(SCC(=O)Nc3ccccc3F)nn2)C1 (stereo not given) | 620 s
NC(=O)C1CCN(C2CC(=O)N(c3ccccc3Sc3ccccc3)C2=O)CC1 (stereo not given) | 650 s
O=C(c1ccccc1)N1CCc2cc(CNS(=O)(=O)c3ccccc3)ccc21 | 819 s
O=C(c1ccc(OCC2CCCN2C(=O)c2ccc(F)cc2)cc1)N1CCCC1 (stereo not given) | 829 s
COC(=O)Nc1nc(CC(=O)Nc2ccc(F)c(Cl)c2)cs1 | 744 s

SMILES | RP-LC retention time
O=C(c1ccsc1)N1CCN(Cc2ccc(=O)n(CC3CC3)c2)CC1 | 543 s
CNC(=O)CN(C)C(=O)c1cc2c(s1)N(CC1CC1)CCCC2 | 818 s
Cc1ccc(CSc2nnc3c(S(=O)(=O)N4CCCCC4)cccn23)cc1 | 928 s
CCSc1nc2ccc(NS(=O)(=O)c3cc(F)ccc3F)cc2s1 | 1020 s
Cc1nc2cc(N3CCCC(C(=O)N4CCN(c5ccccn5)CC4)C3)cnc2nc1C (stereo not given) | 581 s
O=C(c1cn2cc(Cl)ccc2n1)N1CCN(c2ccccc2Cl)CC1 | 946 s
CC1CCCC(NC(=O)c2cc(=O)[nH]c3ccc(Br)cc23)C1C (stereo not given) | 869 s
Cc1c(C#N)c2ccccc2n1CC(=O)NC(C)c1ccc2c(c1)OCCCO2 (stereo not given) | 892 s
Cc1cccc(-n2cc(C(=O)OCC(=O)OC(C)C)c3ccccc3c2=O)c1 | 1130 s
COc1ccc(-c2c(C)noc2NC(C)=O)cc1S(=O)(=O)NCCc1ccc(Cl)cc1 | 894 s
Cc1noc(C)c1S(=O)(=O)N1CC(c2nc(CCOCc3ccccc3)no2)C1 | 979 s
Cc1ccc2cc(CCC(=O)NCCCN3CCCCC3C)c(=O)[nH]c2c1 (stereo not given) | 590 s
COC(=O)c1c(C)[nH]c(C(=O)N2CCCC(C(=O)NCc3cccc(Br)c3)C2)c1C (stereo not given) | 813 s
Cc1c(F)cccc1NC(=O)N1CCC(n2cnnc2C2CC2)C1 (stereo not given) | 655 s
CCc1ccc(NS(=O)(=O)c2cc3n(c2)CCCN(CC)C3=O)cc1 | 801 s
CCN1C(=O)CCc2cc(NC(=O)Cc3ccc(F)cc3)ccc21 | 780 s
CCN1CCN(c2cc(C(=O)O)c3cc(NS(=O)(=O)c4cc(C)ccc4C)ccc3n2)CC1 | 610 s
COc1cccc(CCC(=O)N(C)C[C@@]23CCC[C@H]2N(C)C(=O)CC3)c1 | 571 s
O=C(CNC(=O)Cc1ccccc1)NCC(=O)N1CCCc2ccccc21 | 710 s
CCc1ccc(-c2ccc(=O)n(CCc3nc(-c4ccc(F)cc4)no3)n2)cc1 | 1120 s
CCC(=O)N1CCCn2nc(-c3cccc(F)c3)cc2C1 | 735 s

SMILES | RP-LC retention time
CCN1c2ccc(C)cc2C(=O)NC12CCN(C(=O)c1cccc(F)c1)CC2 | 835 s
O=C(O)C1CCN(c2nc3ccc(-c4cccnc4)nc3s2)CC1 | 610 s
CC(C)C1c2nccn2CCCN1C(=O)c1ccc2c(c1)OCO2 (stereo not given) | 603 s
COc1ccc(-c2cc(NCCc3ccc(OC)c(OC)c3)ncn2)cc1 | 563 s
Cc1cccc(CNC(=O)C2CCCN(c3ccc4cc(S(=O)(=O)N5CCCC5)ccc4n3)C2)c1 (stereo not given) | 774 s
COc1cc(OC)cc(C(=O)N2CCN=C2N2CCC(C)CC2)c1 | 694 s
O=C(Cc1ccc(F)cc1)N1CCc2cc(-c3ccno3)ccc21 | 940 s
CCc1ccccc1NC(=O)Cn1c(=O)cc(-c2nc(C3CC3)no2)c2ccccc21 | 990 s
COCCCNC(=O)C1(C)Cn2nc(-c3ccccc3)cc2C(=O)N1c1ccccc1F (stereo not given) | 830 s
c1cc(CN2CC(Oc3ccc(-c4noc(C5CCOCC5)n4)cc3)C2)cs1 | 671 s
COc1ccc2c(c1)C1(CCN(C(=O)Nc3ccccc3OC)C1)C(=O)N2 (stereo not given) | 722 s
Cc1nnc2c(=O)n(CC(=O)NCc3ccc(F)cc3F)c3cccnc3n12 | 680 s
CCN1CCCC(OC(=O)C(c2ccccc2)c2ccccc2)C1 (stereo not given) | 802 s
O=C(c1csc(N2CCN(c3ccc(F)cc3)CC2)n1)N1CCCC1 | 963 s
COc1cccc(-n2nc(-c3nc(-c4ccccn4)no3)c3ccccc3c2=O)c1 | 1020 s
CCc1cccc(C)c1Nc1c(-c2ccc(Cl)cc2)nc2nc(C)cc(C)n12 | 985 s
COc1cccc2c(=O)c(NC(=O)N3CCCC(C(N)=O)C3)c[nH]c12 (stereo not given) | 580 s
Cc1ccc(C(=O)NCc2ccc3c(c2)ncn3C(C)C)s1 | 614 s
CCCNC(=O)CCc1nc2ccccc2n(CC(=O)Nc2cccc(CC)c2)c1=O | 845 s
CCCN1CCn2cc(S(=O)(=O)Nc3ccccc3OC)cc2C1=O | 733 s

The remaining lines, values ahead:

RP-LC retention time | SMILES
785 s | CCn1c(=O)c(N2CCC(NC(=O)Nc3ccc(OC)c(OC)c3)CC2)nc2ccccc21
706 s | Cc1ccc2nc(CN3CCN(C(=O)Nc4ccc(F)cc4F)CC3)oc2c1
800 s | CCn1c(=O)c(C(=O)NCc2ccccc2OC)nc2cccnc21
804 s | COc1cccc2cc(C(=O)Nc3nc(C)cs3)oc12
694 s | O=C(Cn1ccc2sccc2c1=O)NCc1ccc(F)cc1
863 s | O=C(NCc1cc(-c2ccco2)on1)c1ncc(-c2ccccc2)o1
921 s | CCOC(=O)C(C)NC(=O)N1CCN(c2nc3ccccc3nc2C(F)(F)F)CC1 (stereo not given)
810 s | Cc1cccc(S(=O)(=O)N2CCc3c(c(CN4CCCC4)nn3C)C2)c1
1060 s | Cc1cc(C)n(-c2nc(C)c(C(=O)Nc3ccc(F)cc3)s2)n1
595 s | COc1cccc2c(Nc3ccc(S(N)(=O)=O)cc3)cc(C(=O)N3CCSCC3)nc12
695 s | Cc1ccc2nc(C(=O)NCc3cc(F)cc(F)c3)cn2c1
1160 s | Cc1cc(OC(=O)c2cc3ccccc3o2)c([N+](=O)[O-])c(=O)[nH]1
1460 s | O=C(Nc1nc(-c2ccccc2)c(-c2ccccc2)s1)c1ccc(Br)s1
1040 s | CSc1cccc(NC(=O)CCCn2nc(-n3cccc3)c3c(C)cc(C)nc32)c1
853 s | CCCCNC(=O)c1cnn(-c2cc(-c3nc(C)no3)ccn2)c1C
971 s | Cc1ccc(-n2ccnc2SCc2nc(-c3cccc(F)c3)no2)cc1
597 s | Cc1cc(C(=O)N2C[C@@H](CO)[C@H](N(C)C)C2)ccc1Br
810 s | Cc1ccc(C(=O)N2CCC3(CC2)N=C(c2ccccc2)NO3)s1
716 s | Cn1nc(N2CCC(NC(=O)CCC3CCCC3)C2)ccc1=O (stereo not given)
563 s | O=C(NCc1ccccn1)C(=O)NCC1OCCN1C(=O)c1ccc2c(c1)OCO2 (stereo not given)
1040 s | COCCCNS(=O)(=O)c1ccccc1-c1nc(-c2cccc(F)c2)no1
626 s | c1csc(-c2nc(-c3ccc4c(c3)ncn4CCN3CCCCC3)no2)c1
807 s | O=C(Nc1ccc(F)c(Cl)c1)C1CCc2sc(C(=O)N3CCOCC3)cc2C1 (stereo not given)
592 s | COC(=O)c1ccc(NC(=O)C(=O)NCc2ccccn2)cc1
934 s | O=C(CCCn1c(=O)c2cccn2c2ccc(F)cc21)N1CCCCCC1
890 s | CC(C)OCCCNC(=O)CN1c2ccc(F)cc2-c2ccccc2S1(=O)=O
847 s | O=C(C1=CN(c2ccc3c(c2)OCO3)c2cc(Cl)ccc2S1(=O)=O)N1CCCC1
896 s | CCCn1cc(C2=CCN(S(=O)(=O)c3c(C)nn(C)c3C)CC2)c2cccnc21
